This test concerns Vascular smooth muscle cells (VSMC). As to the kind of experiment: Determination of DT (time required for doubling the number of cells) of vascular smooth muscle culture cells. It is filed as cell-based. To be noted: Treated Group; VSMC from aorta of SHR, 48-hour cultivation with Compound A; concentration not given; P < 0.02 vs. control group by Student's t-test; hydrate. On the procedure: Effects on Proliferation of Vascular Smooth Muscle Culture Cells Vascular smooth muscle cells (hereinafter referred to as VSMC) were separated from the aorta of seven 7-week-old male SHR and cultured according to the explant method [cf. Ross, R.J. Cell Biol., Vol. 50, 172 (1971)]. Culture cells of passage Nos. 4 to 10 were used for testing. The proliferation ability of VSMC was evaluated in terms of time required for doubling the number of the cells (hereinafter referred to as DT) and ³H-TU according to the following test methods. 1) Determination of DT: VSMC (about 5 x 10⁴ cells) were cultured on a plate for 24 hours. Compound A was added to the culture, and cultivation was continued for an additional period of 48 hours. The number of cells before the addition of Compound A and after the 48-hour cultivation were counted by means of a light microscope, and DT was obtained therefrom by the equation: [formula] wherein t₁ is the time at which the number of cells before addition of Compound A is counted; t₂ is the time at which the number of cells after addition of Compound A is counted; N₁ is the number of cells at t₁; and N₂ is the number of cells at t₂.

The record followed here is patent EP0334369B1, “Antiarteriosclerotic agent” (DAIICHI PHARMACEUTICAL CO., LTD., priority 1988, dated 1989).

Values joined by “and” are separate entries in the source; they are usually repeats but may differ in a detail not shown here. Equal entries are not always repeated. Structures can show the parent of a compound that is named as a salt.

As to `O=C(O)c1ccc2c(c1)CCC(Cn1ccnc1)C2` (stereo not shown) [Compound A, 6-(1-Imidazolylmethyl)-5,6,7,8-tetrahydro-2-naphthalenecarboxylic acid hydrochloride 1/2 hydrate], the DT is 26.16 h and 27.81 h and 26.59 h and 28.94 h and 21.66 h and 24.41 h.
